In US5474988A, “5-phenylpyrrolo-1,4-benzoxazine and 5-phenylpyrrolo-1,4-benzothiazine compounds, process and intermediates for their production and pharmaceutical compositions containing them” (Kali-Chemie Pharma GmbH, priority 1993, dated 1995):

Tests used:
5-lipoxygenase = test: inhibition of 5-lipoxygenase activity in polymorphonuclear rat leucocytes (LTB4 formation); format: cell-based; conditions: 10^-5 mol/l; 22° C.
Source text: 4. In vitro determination of 5-lipoxygenase inhibition. 4a. In vitro determination of inhibition of 5-lipoxygenase activity in polymorphonuclear rat leucocytes. Arachidonic acid contained in cell membranes is released after activiation of the polymorphonuclear leucocytes (=PMN). During the course of this, under the action of the enzyme 5-lipoxygenase (=5-LO) arachidonic acid metabolites are synthesized which can be converted to leucotriene B4 (=LTB4) by LTA4 hydrolase. LTB4 is a principal metabolite of the arachidonic acid metabolism taking place on activation of the enzyme 5-LO by the inflammatory stimulus in the cell membrane. In in vitro systems, this metabolite is secreted from PMNs. […] To accomplish this, the content of LTB4 in a culture medium of rat peritoneal PMNs was determined after stimulation by calcimycin (=calcium-ionophore A23187) such as described by […] et al., Can. J. Physiol. Pharmacol. 67 (1989), 17. A cell suspension containing peritoneal PMNs of male Sprague-Dawley rats (body weight 200 to 250 g) was obtained in a known manner as follows: 6 ml of a solution containing 27.9 g/l of sodium thioglycolate were injected i.p. into the animals in order to induce the PMN invasion due to this inflammatory stimulus. After 22 hours, the animals were sacrificed by means of lethal ether anaesthesia. 20 ml of a Hank's salt solution (=Hank's Balanced Salt Solution=HBSS), but without Ca^++ and Mg^++ ions and with 0.2% by weight of sodium citrate, were then injected into the abdominal cavity. The suspension of accumulated cells was removed from the abdominal cavity and the cells were separated by centrifugation (10 minutes at 400×g). The cells were purified by repeated centrifugation in the presence of Ficoll-Paque®, (=metrizoic acid preparation, […], manufacturer Pharmacia), then washed twice with HBSS containing Ca^++ and Mg^++ ions and resuspended in HBSS containing Ca^ ++ and Mg^++ ions and buffered with 10 mM HEPES (=hydroxyethylpiperazinoethanesulfonic acid). In order to carry out the tests, samples of 0.7 ml of the PMN suspension (=0.5×10^6 cells) in each case were incubated for 15 minutes at 22° C. in plastic tubes containing 10 μM of the test substance in dimethylformamide or, as a control experiment, only containing dimethylformamide. The LTB4 synthesis was initiated in the samples by addition of calcimycin (final concentration 5 μm), and the samples were incubated for 10 minutes at 22° C. Only solvent was added to blank control samples. After 10 minutes, the reaction was terminated by addition of 0.3 ml of cold methanol. The samples were kept for 1 hour at 4° C. and then centrifuged (5 minutes at 10,000×g). The supernatant liquid was investigated to determine its LTB4 content by means of reverse phase high-pressure liquid chromatography (=reverse phase HPLC). […] The LTB4 was identified by comparison with authentic standard solutions eluting at the same time and determined at a wavelength of 270 nm. The LTB4 contents are determined from comparison with calibrated standard solutions, and from this the inhibitory activity of the test substances was calculated in % inhibition of the LTB4 synthesis in comparison with the control samples containing no test substance.

[1] = tested on: P.A.F.-induced aggregation of blood platelets; test: anti-P.A.F. action in vitro (P.A.F.-induced platelet aggregation); format: cell-based; conditions: Oryctolagus cuniculus, 10^-5 mole/liter, read-out: Anti-P.A.F. activity in vitro, % inhibition of the P.A.F.-induced aggregation of blood platelets from rabbit blood
Source text: 3. Determination of the anti-P.A.F. action in vitro.
P.A.F. (=Platelet Activating Factor=Platelet Aggregation Factor) is a phospholipid mediator which has a multiplicity of actions. The activation of blood platelet aggregation results in the induction of long-lasting bronchoconstrictions and hyperreactivity of the respiratory passages.
In this test, the effect of the test substances on platelet aggregation induced by addition of P.A.F. in a platelet suspension obtained from rabbit blood was investigated according to the method described by Mikashima et al. (Jap. J. Pharmacol. 44 (1987) 387-391).
A suspension of platelets obtained from rabbit blood was used which contains 4×10^9 platelets/ml in a modified Tyrode buffer solution (=Tyrode solution with the addition of 1.3 mM/l of CaCl2 and 2.5 g/l of gelatine) adjusted to pH 7.4. Tyrode solution is an aqueous solution containing, per liter, 136.9 mmole of NaCl, 2.68 mmole of KCl, 2.31 mmole of CaCl2, 1.0 mmole of MgCl2, 11.9 mmole of NaHCO3, 1.45 mmole of NaH2 PO4 and 5.55 mmole of glucose. The platelets were concentrated from 10 ml blood samples of three rabbits (New Zealand hybrids, body weight 3-4 kg) in each case. To accomplish this, the blood samples were treated with ethylenediaminetetraacetic acid and washed according to the method of Artley et al. (Brit. J. Haematol. 19 (1970), 7-17). A platelet-rich plasma was first separated by centrifugation (20 minutes at 400×g). The platelets were separated from the plasma by repeated centrifugation for 15 minutes at 1400×g.After the centrifugation, the blood platelets remaining in the sediment were resuspended in a Tyrode buffer solution (but without calcium). 0.4 mmole of lysine acetylsalicylate was then added, and the blood platelets were sedimented again after 15 minutes. The sediment was resuspended in the aforementioned modified Tyrode buffer solution, and the number of platelets in the suspension obtained was adjusted to the desired content.
A 40×10^-9 molar P.A.F. solution was employed as a reagent. This solution was prepared from a 1.8×10^-3 molar stock solution in chloroform. To do this, a 10 μl sample of the stock solution was evaporated to dryness and dissolved again in 180 μl of the modified Tyrode buffer solution, to which 0.25% of lipid-free bovine serum albumin had been added. 10^-5 molar working solutions were then prepared from this and stored frozen. Samples of these solutions were appropriately diluted for tests.
In order to carry out the test, 50 μl of the blood platelet suspension and 10 μl of a 40×10^-5 molar solution of the compound to be investigated were added to […] of the modified Tyrode buffer solution with stirring (1000 rpm) in an aggregation tube provided with a small magnetic stirrer. This corresponded to a final test substance concentration of 10^-5 mole/l. After a preincubation time of 90 seconds, 10 μl of the P.A.F. preparation were added. For 4-5 minutes, the aggregation occurring in the aggregation tube was measured by means of a computerized aggregometer.
The aggregation occurring in the test tubes containing only the platelet suspension is rated as 0%. The aggregation occurring in the test tubes containing platelet suspension and P.A.F. preparation, in which a P.A.F.-induced increase in platelet aggregation takes place, is rated as 100%. The aggregation still occurring after addition of the test substances is measured, and from this the inhibition of the P.A.F.-inducedincrease in aggregation which takes place is calculated in %.

SMILES | In vitro inhibitory activity on LTB4 formation in rat PMNs stimulated by calcium ionophore A23187 (5-lipoxygenase) | inhibition at 10 µM [1]
Cc1cccc(N2CCN(C(=O)CCC3Cn4c(-c5ccc(O)cc5)c(C)c5cccc(c54)O3)CC2)n1 (stereo not drawn) [Example 57] | 85% | –
COc1ccc(-c2c(C)c3c(F)ccc4c3n2CC(CCN2CCN(c3cc(C)ccn3)CC2)O4)cc1 (stereo not drawn) [Example 51] | – | 65%
Cc1cccnc1N1CCN(C(=O)CCC2Cn3c(-c4ccc(O)cc4)c(C)c4cccc(c43)O2)CC1 (stereo not drawn) [Example 37] | 100% | 48%
Cc1ccnc(N2CCN(CCC3Cn4c(-c5ccc(O)cc5)c(C)c5c(C)cc(C)c(c54)O3)CC2)c1 (stereo not drawn) [Example 70] | 68% | 93%
Cc1cccc(N2CCN(CCCC3Cn4c(-c5ccc(O)cc5)c(C)c5cccc(c54)O3)CC2)n1 (stereo not drawn) [Example 58] | 54% | –
Cc1ccnc(N2CCN(CCC3Cn4c(-c5ccc(O)cc5)c(C)c5cccc(c54)O3)CC2)c1 (stereo not drawn) [Example 2, 2,3-Dihydro-5-(4-hydroxyphenyl)-6-methyl-2-[2-(4-(4-methylpyridin-2-yl)piperazin-1-yl)ethyl]pyrrolo[1,2,3-de]-1,4-benzoxazine] | 89% | 97%
Cc1c(-c2ccc(O)cc2)n2c3c(cccc13)OC(CCCN1CCN(c3ccccn3)CC1)C2 (stereo not drawn) [Example 56] | 76% | –
COc1ccc(-c2c(C)c3cccc4c3n2CC(CCN2CCN(c3cc(C)ccn3)CC2)O4)cc1O (stereo not drawn) [Example 52] | 53% | –
COc1ccc(-c2c(C)c3cccc4c3n2CC(CCN2CCN(c3cc(C)ccn3)CC2)O4)cc1 (stereo not drawn) [Example 1, 2,3-dihydro-5-(4-methoxyphenyl)-6-methyl-2-[2-(4-(4-methylpyridin-2-yl)piperazin-1-yl)ethyl]pyrrolo[1,2,3-de]-1,4-benzoxazine] | – | 80%
Cc1ccnc(N2CCN(CC3Cn4c(-c5ccc(O)cc5)c(C)c5cccc(c54)O3)CC2)c1 (stereo not drawn) [Example 14] | 90% | 100%
COc1ccc2c3c1c(C)c(-c1ccc(O)cc1)n3CC(CCC(=O)N1CCN(c3cc(C)ccn3)CC1)O2 (stereo not drawn) [Example 68] | 90% | 96%
Cc1ccc(N2CCN(CCCC3Cn4c(-c5ccc(O)cc5)c(C)c5cccc(c54)O3)CC2)nc1 (stereo not drawn) [Example 55] | 63% | –
COc1ccc(-c2c(C)c3cccc4c3n2CC(CCC(=O)N2CCN(c3cc(C)ccn3)CC2)O4)cc1 (stereo not drawn) [Example 6, 2,3-Dihydro-5-(4-methoxyphenyl)-6-methyl-2-[3-(4-(4-methylpyridin-2-yl)piperazin-1-yl)-3-oxopropyl]pyrrolo[1,2,3-de]-1,4-benzoxazine] | – | 100%
Cc1ccnc(N2CCN(CCCCC3Cn4c(-c5cc(C)c(O)c(C)c5)c(C)c5cccc(c54)S3)CC2)c1 (stereo not drawn) [Example 63] | – | 80%
Cc1ccnc(N2CCN(CCC3Cn4c(-c5cc(C)c(O)c(C)c5)c(C)c5c(Cl)ccc(c54)O3)CC2)c1 (stereo not drawn) [Example 48] | – | 69%
Cc1c(-c2ccc(O)cc2)n2c3c(cccc13)OC(CCN1CCN(c3ccc(F)cc3)CC1)C2 (stereo not drawn) [Example 24] | 73% | –
